Test results as given in patent US12285395B2, “Pharmaceutical composition for preventing or treating allodynia caused by anticancer agents” (UNIVERSITY-INDUSTRY COOPERATION GROUP OF KYUNG HEE …, priority 2018, dated 2025).

What was measured:
[1] = system: cold allodynia induced by vincristine; experiment: Cold allodynia (acetone application), vincristine animal model, oral cinnamic acid; format: in vivo, c57/bl6 mice
Experimental: Six-week-old mice (c57/bl6 mice) were prepared as an experimental animal. Vincristine at a concentration of 1 mg/mL was injected intraperitoneally for 7 consecutive days at 0.1 mg/kg. Significant pain was observed from about 10 days after the first injection. The reaction that occurred by applying about 20 μL of acetone to the soles of both rear paws of the experimental animal was observed and recorded for about 15 s. Behaviors that are criteria for recording are an avoidance reaction, a behavior of shaking the soles of the paw, and a behavior of licking the soles of the paw. The evaluation was repeated a total of three times, and the average of the number of recorded behaviors was confirmed. Experimental animals induced with allodynia were selected through a pre-behavioral experiment and orally administered with 50 mg/kg and 100 mg/kg of cinnamic acid, and the effects after 1 h and 2 h were confirmed.

[2] = system: oxaliplatin-induced cold allodynia; experiment: Acetone drop test, oxaliplatin-induced cold allodynia, intraperitoneal administration; format: in vivo, Sprague Dawley (SD) rats; settings: for effect on oxaliplatin-induced cold allodynia: all three doses 10, 20 and 40 mg/kg i.p., 30, 60, 120 min after injection (FIG. 5A, FIG. 6)
Experimental: (§1) Cinnamic acid (trans-cinnamic acid, Wako Pure Chemical Industries, Osaka, Japan) and cinnamaldehyde (Wako Pure Chemical Industries, Osaka, Japan) were dissolved in 10% dimethyl sulfoxide (DMSO, Sigma) (adjusted to pH 7 with 2 M HCl and 5 M NaOH) and 1% Tween 20 (Sigma), respectively. The final volume of 10% DMSO and 1% Tween 20 used in the experiment was […] rat. Cinnamic acid and cinnamaldehyde (10 mg/kg, 20 mg/kg, and 40 mg/kg) (i.p.) at different concentrations were administered to rats with cold allodynia and mechanical allodynia.
(§2) Seven-week-old male Sprague Dawley (SD) rats (180 g to 210 g, 95 rats total, Young Bio, Gyeonggi, Korea) were fed freely with feed and water in cages. The room temperature was maintained at 23±2° C. and a 12 h/12 h contrast cycle was maintained. All procedures described in the present disclosure were approved by the Animal Care and Use Committee of Kyunghee University (KHUASP[SE]-18-153) and followed the guidelines of the International Pain Research Association.
(§3) In order to measure cold allodynia and mechanical allodynia, according to a previous method (Flatters, S J; Bennett, G J Ethosuximide reverses paclitaxel- and vincristine-induced painful peripheral neuropathy. Pain 2004, 109, 150-161), an acetone drop test and a von Frey filament test (up-down method, Linton Instrumentation, Norfolk, UK) were performed, respectively. The rats were trained for one week before the start of the experiment to adapt to the touch and the experimental procedure. The rats were stabilized for 30 min before testing in a clear plastic box (20 cm×20 cm×14 cm) with a wire mesh bottom, while not recognizing the injection of oxaliplatin and other drugs.
Acetone was dripped 5 times on the right hind paw, and the total frequency of licking and shaking of the soles was measured as an average per time.
(§4) For the mechanical allodynia test, paw withdrawal thresholds were measured in the right hind paw using a von Frey filament. Dixon's up-down method and Chaplan's calculation method were used, and a withdrawal threshold of 15 g was measured as a cut-off. In order to confirm the effects of cinnamaldehyde and cinnamic acid at different concentrations over time, the behavioral experiment was performed before injection of cinnamic acid and cinnamaldehyde (time point of 0 min) and at time points of 30 min, 60 min, and 120 min after injection.
(§5) Oxaliplatin (Wako Pure Chemical Industries, Osaka, Japan) was dissolved in a 5% glucose solution at a concentration of 2 mg/mL and injected intraperitoneally at a dose of 6 mg/kg. The same volume of 5% glucose solution (i.p.) was administered to a control.
(§6) All data are expressed as mean±S.E.M. (Standard error of the mean). The data in FIG. 4 was analyzed by a paired t-test (FIGS. 4A and 4B) or an unpaired t-test (FIG. 4C). The data in FIGS. 5 and 6 were expressed as mean±S.E.M. and analyzed by a Bonferroni post-test after one-way ANOVA to evaluate a statistical difference between groups. The data in FIG. 7A were analyzed using Dunnett's multiple comparisons test after two-way ANOVA. The 95% reliability was considered to be statistically significant.

[3] = system: oxaliplatin-induced mechanical allodynia; experiment: von Frey filament test (up-down method), oxaliplatin-induced mechanical allodynia, intraperitoneal administration; format: in vivo, Sprague Dawley (SD) rats
Experimental: as §1, §2, §3, §4, §5, §6

[4] = system: spinal WDR neurons; experiment: In vivo extracellular recording of spinal WDR neurons after oxaliplatin; parameters: species or system Sprague Dawley (SD) rats
Experimental: as §2
Oxaliplatin (Wako Pure Chemical Industries, Osaka, Japan) was dissolved in a 5% glucose solution at a concentration of 2 mg/mL and injected intraperitoneally at a dose of 6 mg/kg. The same volume of 5% glucose solution (i.p.) was administered to a control. […]
as §6, with “The 95% reliability was considered to be statistically significant.” left out

[5] = system: mechanical allodynia induced by paclitaxel; experiment: Mechanical allodynia (von Frey filament 0.4 g), paclitaxel animal model, oral cinnamic acid; format: in vivo, c57/bl6 mice; settings: mice
Experimental: Six-week-old mice (c57/bl6 mice) were prepared as an experimental animal. Paclitaxel (Sigma-Aldrich) dissolved at a concentration of 6 mg/mL in a 1:1 solution of Cremophor EL and ethanol was diluted to a concentration of 2 mg/mL and intraperitoneally injected 4 times at 2 mg/kg. The dosage was administered every other day on days 0, 2, 4, and 6. Significant pain was observed from about 10 days after the first dosage. The number of reactions was recorded by stimulating the soles of both hind paws of the experimental animal 10 times using a von Frey filament at a pressure of 0.4 g. The behaviors that are criteria for recording are an avoidance reaction and a behavior of licking the soles of the paw. The recording for both paws was averaged and confirmed. As a pre-behavioral experiment, 50 mg/kg and 100 mg/kg of cinnamic acid was orally administered to experimental animals induced with allodynia, and the effects after 1 h and 2 h were confirmed.

[6] = system: cold allodynia induced by oxaliplatin; experiment: Cold allodynia (acetone application), oxaliplatin animal model, oral cinnamic acid; format: in vivo, c57/bl6 mice
Experimental: (§7) Six-week-old mice (c57/bl6 mice) were prepared as an experimental animal.
(§8) Oxaliplatin (Sigma-Aldrich) dissolved in a 5% glucose solution at a concentration of 2 mg/mL was singly administered intraperitoneally to the experimental animal in an amount of 6 mg/kg. Significant pain was observed from about 3 days after intraperitoneal administration.
The reaction that occurred by applying about 20 μL of acetone to the soles of both rear paws of the experimental animal was observed and recorded for about 15 s.
Behaviors that are criteria for recording are an avoidance reaction, a behavior of shaking the soles of the paw, and a behavior of licking the soles of the paw. The evaluation was repeated a total of three times, and the average of the number of recorded behaviors was confirmed.
(§9) Experimental animals induced with allodynia were selected through a pre-behavioral experiment, and the effects were confirmed at 2 h after oral administration of 10 mg/kg of cinnamic acid.

[7] = system: mechanical allodynia induced by oxaliplatin; experiment: Mechanical allodynia (von Frey filament 0.4 g), oxaliplatin animal model, oral cinnamic acid; format: in vivo, c57/bl6 mice; settings: mice, 10 mg/kg oral (FIG. 1)
Experimental: as §7, §8
The number of reactions was recorded by stimulating the soles of both hind paws of the experimental animal 10 times using a von Frey filament at a pressure of 0.4 g.
The behaviors that are criteria for recording are an avoidance reaction and a behavior of licking the soles of the paw. The recording for both paws was averaged and confirmed.
as §9

[8] = system: cold allodynia induced by paclitaxel; experiment: Cold allodynia (acetone application), paclitaxel animal model, oral cinnamic acid; format: in vivo, c57/bl6 mice
Experimental: Six-week-old mice (c57/bl6 mice) were prepared as an experimental animal. Paclitaxel (Sigma-Aldrich) dissolved at a concentration of 6 mg/mL in a 1:1 solution of Cremophor EL and ethanol was diluted to a concentration of 2 mg/mL and intraperitoneally injected 4 times at 2 mg/kg. The dosage was administered every other day on days 0, 2, 4, and 6. Significant pain was observed from about 10 days after the first dosage. The reaction that occurred by applying about 20 μL of acetone to the soles of both rear paws of the experimental animal was observed and recorded for about 15 s. Behaviors that are criteria for recording are an avoidance reaction, a behavior of shaking the soles of the paw, and a behavior of licking the soles of the paw. The evaluation was repeated a total of three times, and the average of the number of recorded behaviors was confirmed. As a pre-behavioral experiment, 50 mg/kg and 100 mg/kg of cinnamic acid was orally administered to experimental animals induced with allodynia, and the effects after 1 h and 2 h were confirmed.

[9] = system: mechanical allodynia induced by vincristine; experiment: Mechanical allodynia (von Frey filament 0.4 g), vincristine animal model, oral cinnamic acid; format: in vivo, c57/bl6 mice; settings: mice
Experimental: Six-week-old mice (c57/bl6 mice) were prepared as an experimental animal. Vincristine at a concentration of 1 mg/mL was injected intraperitoneally for 7 consecutive days at 0.1 mg/kg. Significant pain was observed from about 10 days after the first injection. The number of reactions was recorded by stimulating the soles of both hind paws of the experimental animal 10 times using a von Frey filament at a pressure of 0.4 g. The behaviors that are criteria for recording are an avoidance reaction and a behavior of licking the soles of the paw. The recording for both paws was averaged and confirmed. Experimental animals induced with allodynia were selected through a pre-behavioral experiment and orally administered with 50 mg/kg and 100 mg/kg of cinnamic acid, and the effects after 1 h and 2 h were confirmed.

[10] = 10, 20 and 40 mg/kg i.p., 30, 60, 120 min after injection (FIG. 5B, FIG. 6)

O=C(O)/C=C/c1ccccc1 [cinnamic acid]
time after administration up to which pain relief effect on cold allodynia was shown ([1]; high dose 100 mg/kg p.o.): up to 1 h
pain relief effect on cold allodynia ([1]; mice, 50 mg/kg oral (FIG. 3)): no significant pain relief effect
pain relief effect on cold allodynia compared to control ([1]; mice, 100 mg/kg oral, after 1 h (FIG. 3)): significant pain relief effect
time point at which the effect on cold allodynia disappeared ([2]; 10 mg/kg i.p. (FIG. 5A)): 120 min
pain relief effect on cold allodynia of 20 mg/kg relative to 40 mg/kg ([2]; 20 mg/kg i.p. vs 40 mg/kg i.p. (control vs. 20 mg/kg p<0.001, 40 mg/kg p<0.05) (FIG. 5A)): slightly stronger
effect on oxaliplatin-induced cold allodynia [2]: had effects on cold allodynia
optimal dose for alleviating cold allodynia and mechanical allodynia caused by oxaliplatin ([2]; intraperitoneal administration, doses tested 10, 20, 40 mg/kg): 20 mg/kg
effect on oxaliplatin-induced mechanical allodynia ([3]; 10 mg/kg i.p., 60 min after injection (FIG. 5B)): remarkable effect
anti-allodynic effect on mechanical allodynia ([3]; 20 mg/kg i.p., all time points, compared with 10 and 40 mg/kg (FIG. 5B)): strongest anti-allodynic effect among the three doses
effect on oxaliplatin-induced mechanical allodynia [3, 10]: significantly alleviated
increased activity of WDR neurons after oxaliplatin injection (brush, press, pinch, acetone drop stimulations) ([4]; 20 mg/kg i.p., day 4 after oxaliplatin, vs 10% DMSO control (FIGS. 7A to 7D)): significantly decreased
pain relief effect on mechanical allodynia ([5]; 50 mg/kg oral (FIG. 2)): no significant pain relief effect
pain relief effect on mechanical allodynia compared to control ([5]; 100 mg/kg oral (FIG. 2)): no significant pain relief effect
time after administration up to which pain relief effect on cold allodynia was shown ([6]; low dose 10 mg/kg p.o.): up to 2 h
pain relief effect on cold allodynia compared to control (vehicle) ([6]; mice, 10 mg/kg oral, 2 h after administration (FIG. 1)): significant pain relief effect
pain relief effect on mechanical allodynia compared to control (vehicle) [7]: no significant pain relief effect
time after administration up to which pain relief effect on cold allodynia was shown ([8]; high dose 100 mg/kg p.o.): up to 1 h
pain relief effect on cold allodynia ([8]; mice, 50 mg/kg oral (FIG. 2)): no significant pain relief effect
pain relief effect on cold allodynia compared to control ([8]; mice, 100 mg/kg oral, after 1 h (FIG. 2)): significant pain relief effect
pain relief effect on mechanical allodynia ([9]; 50 mg/kg oral (FIG. 3)): no significant pain relief effect
pain relief effect on mechanical allodynia compared to control ([9]; 100 mg/kg oral (FIG. 3)): no significant pain relief effect

O=CC=Cc1ccccc1 [cinnamaldehyde, reference compound]
effect on oxaliplatin-induced cold allodynia [2]: did not have relief effects
effect on oxaliplatin-induced mechanical allodynia [3, 10]: did not have relief effects

O=C1[O][Pt]2([NH][C@@H]3CCCC[C@H]3[NH]2)[O]C1=O [oxaliplatin, reference compound]
induction of cold allodynia (acetone drop) ([2]; oxaliplatin 6 mg/kg i.p. single injection, day 4, p<0.001 vs before (FIG. 4A)): significantly induced
induction of mechanical allodynia (von Frey) ([3]; oxaliplatin 6 mg/kg i.p. single injection, day 4, p<0.001 vs before (FIG. 4B)): significantly induced
number of spike responses of WDR neurons to mechanical (brush, press, pinch) and cold (acetone drop) stimulations ([4]; after oxaliplatin 6 mg/kg i.p. vs 5% glucose control (FIGS. 4C to 4F)): significantly increased
